In patent US20260015364A1, “PIPERAZINE BRIDGE-SUBSTITUTED HETEROCYCLIC PYRIMIDINE COMPOUND” (MEDSHINE DISCOVERY INC., priority 2022, published 2026):

Assays:
[1] = system: AsPC-1 human pancreatic cancer cells with KRAS^G12D mutation; test: AsPC-1 3D CTG experiment (anti-proliferation); format: cell-based; conditions: ASPC1, 168 h, 7 days incubation
Description: This experiment aims to verify the inhibitory effect of the compounds of the present disclosure on the proliferation of AsPC-1 human pancreatic cancer cells with KRAS^G12D mutation.
(§1) Cell line AsPC-1 and RPMI-1640 medium were purchased from GIBCO, and FBS was purchased from Hyclone. The 96-well plate was purchased from Ultra Low Cluster, CellTiter-Glo® 3D Cell Viability Assay reagents (chemiluminescent 3D cell viability assay reagents) were purchased from Promega, and 2104 EnVision plate reader was purchased from PerkinElmer.
AsPC-1 cells were cultured in an incubator at 37° C. with 5% CO2 the conditions of RPMI-1640+10% FBS. Regular passaging was performed, and cells in the logarithmic growth phase were selected for plating. AsPC-1 cells were seeded in a 96-well U-bottom cell culture plate, and each well of 135 μL cell suspension contained 500 AsPC-1 cells. The culture plate was cultured overnight in a 37° C., 5% CO2 incubator with 100% relative humidity. The test compound was diluted 5-fold to the eighth concentration using a pipette, ranging from 200 μM to 2.56 nM, and tested in duplicate. 78 μL of culture medium per well was added to an intermediate plate. Subsequently, 2 μL of the gradient diluted compound per well was transferred to the corresponding wells of the intermediate plate and mixed well. […] A multimode microplate reader was used for reading. […]

[2] = system: PANC04.03 human pancreatic cancer cells with KRAS^G12D mutation; test: PANC04.03 3D CTG experiment (anti-proliferation); format: cell-based; conditions: Panc 04.03, 168 h, 7 days incubation
Description: This experiment aims to verify the inhibitory effect of the compounds of the present disclosure on the proliferation of PANC04.03 human pancreatic cancer cells with KRAS^G12D mutation.
as §1, with “PANC04.03” for “AsPC-1”, “GIBCO,” for “GIBCO, and”, “Hyclone, and human insulin was purchased from Yeasen.” for “Hyclone.”, “En Vision” for “EnVision”
PANC04.03 cells were cultured in an incubator at 37° C. with 5% CO2 under the conditions of RPMI-1640+15% FBS+5 µg/mL human insulin. Regular passaging was performed, and cells in the logarithmic growth phase were selected for plating. PANC04.03 cells were seeded in a 96-well U-bottom cell culture plate, and each well of 135 μL cell suspension contained 2000 PANC04.03 cells. The culture plate was cultured overnight in a 37° C., 5% CO2 incubator with 100% relative humidity. The test compound was diluted 5-fold to the eighth concentration using a pipette, ranging from 200 μM to 2.56 nM, and tested in duplicate. 78 μL of culture medium per well was added to an intermediate plate. […] A multimode microplate reader was used for reading. […]

[3] = system: PANC04.03 cell subcutaneously transplanted tumors; test: In vivo pharmacodynamic experiment of PANC04.03 tumor model; design: species or system Balb/c Nude mice; conditions: p.o., BID, 28 days of administration
Procedure: In vivo pharmacodynamics of PANC04.03 cell subcutaneously transplanted tumors in Balb/c Nude mice model with human pancreatic cancer
Cell culture: Human pancreatic cancer PANC04.03 cells were cultured in monolayer in vitro. The culture conditions were RPMI-1640+15% FBS+10 units/mL insulin, and cultured in a 37° C., 5% carbon dioxide incubator. Routine digestion with trypsin-EDTA was performed twice a week for passaging. When the cell saturation reached 80% to 90% and the required quantity was reached, the cells were harvested, counted, and resuspended in an appropriate amount of PBS to obtain a cell suspension with a cell density of 25×10^6 cells/mL.
Cell inoculation: 0.2 mL (5×10^6 cells/mouse) of PANC04.03 cells were subcutaneously inoculated into the right back of each mouse.
Experimental operation: When the average tumor volume reached 190 mm^3, the mice were randomly divided into groups according to the tumor volume, with 6 animals in each group. The blank group was administered with a dose of 0, and the test group was orally administered with a dose of 30 mg/kg, 100 mg/kg, 150 mg/kg, and a volume of 10 μL/g, respectively, and was administered twice a day for 28 days.
Tumor diameters were measured twice a week with a vernier caliper. The formula for calculating tumor volume is: V=0.5a×b^2, wherein a and b represent the long and short diameters of the tumor, respectively.
The tumor inhibitory efficacy of the compound was evaluated by TGI (%) or relative tumor proliferation rate T/C (%). Relative tumor proliferation rate T/C (%)=TRTV/CRTV×100% (TRTV:RTV of treatment group; CRTV:RTV of negative control group). The relative tumor volume (RTV) was calculated based on the results of tumor measurements. The calculation formula is RTV=Vt/V0, where V0 is the average tumor volume measured at the beginning of administration in groups (i.e., D0), and Vt is the average tumor volume measured at a certain measurement. TRTV and CRTV used the data from the same day.
TGI (%) reflected the tumor growth inhibition rate. […]

C#Cc1c(F)ccc2cc(N)cc(-c3ncc4c(N5CC6CCC(C5)N6)nc(OC[C@@]56CC(=C)CN5C[C@@H]5C[C@@H]56)nc4c3F)c12 (single isomer, unassigned) [Compound 3]
IC50 [1]: 0.00574 µM | IC50 [2]: 0.0342 µM | TGI ([3]; 30 mpk): 95.41% | TGI ([3]; 100 mpk): 108.41% | TGI ([3]; 150 mpk): 115.80%
